Test results from PubChem BioAssay AID463206 (Broad Institute, 2010).
Active and inactive are the calls of the source.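 The calls were made as follows: active = caspase luminescence falls with dose and the half-maximal concentration AC50 from the fitted curve is at or below a set limit; inconclusive = flat fit at 30 to 70% signal loss, or invalid fit; inactive = AC50 above the limit, or signal rises instead.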

Tested on: INS-1E cytokine-induced caspase-3/7, Caspase-Glo luminescence, 48 h
Experiment: suppression of cytokine-driven beta-cell apoptosis – INS-1E rat cells, luminescence, orthogonal assay for beta-cell apoptosis protection project, dose response (AID 463206)

| Compound | AC50 |
| --- | --- |
| O=[N+]([O-])c1ccc(O)c(/C=N/Nc2ccccn2)c1 | > 26 µM (inactive) |
| COc1cccc(N=Nc2ccc(O)c3ncccc23)c1 | > 26 µM (inactive) |
| CC(C)c1ccccc1-n1c(SCC(=O)N2CCc3ccccc3C2)nc2ccccc2c1=O | > 26 µM (inactive) |
| O=C(N/N=C\c1ccc([N+](=O)[O-])s1)c1cncc(Br)c1 | > 26 µM (inactive) |
| COc1ccc(OC)c2sc(N(CCCN(C)C)C(=O)c3ccc(S(=O)(=O)N4CCc5ccccc5C4)cc3)nc12 | > 26 µM (inactive) |
| CCC(C)Nc1nc(-c2ccccn2)nc2ccccc12 (configuration not stated) | > 26 µM (inactive) |
| Cc1ccc(NC2=C/C(=N\S(=O)(=O)c3cccs3)c3ccccc3C2=O)c(C)c1 | > 26 µM (inactive) |
| CCc1cc(CNC(=O)c2ccc3nc(Cc4ccc(OC)c(OC)c4)oc3c2)on1 | > 26 µM (inactive) |
| COc1ccccc1N1C(C)=CC(=C(C#N)c2nc3ccccc3s2)C=C1C | > 26 µM (inactive) |
| O=C(NCc1ccccc1)C1=C[C@@H](c2csc3ccccc23)C[C@@H](OCCCCO)O1 | > 26 µM (inactive) |
| COc1ccc(C(=O)NC(=S)NNC(=O)c2cnccn2)cc1 | > 26 µM (inactive) |
| Cc1ccc(C(C)C)c(OCc2ccc(C(=O)N/N=C/c3ccc(O)cc3O)cc2)c1 | > 26 µM (inactive) |
| CCOC(=O)/C(=C\c1ccccc1)C(=O)c1cc(C(C)=O)c(Nc2ccccc2)s1 | > 26 µM (inactive) |
| C#CCOCCOCCOCCNc1nc(N2CCN(C(=O)CCCCCCCCCCNC(=O)[C@H]([C@@H](C)CC)n3cc(CCCCN=C(N)N)nn3)CC2)nc(N2CCN(C(=O)CCCCCCCCCCNC(=O)[C@H](CO)n3cc(CCCCCN)nn3)CC2)n1 | > 26 µM (inactive) |
| O=C(c1ccccc1)c1c2c(cc3sc4ccccc4[n+]13)-c1cccc3cccc-2c13 | > 26 µM (inactive) |
| Cc1ccc2c(c1)c(/C=C/c1cc[n+](C)cc1)c(C)n2C | > 26 µM (inactive) |
| CC1(C)Cc2c(c(N3CCOCC3)nc3sc4c(NN)ncnc4c23)CS1 | > 26 µM (inactive) |
| COc1ccc(-n2c(-c3ccc(Cl)cc3)c[n+]3c2CCCCC3)cc1 | > 26 µM (inactive) |
| COc1ccc(Nc2nc(N3CCCC3)c3ccccc3n2)cc1 | 17.1 µM |
| CCN(CC)S(=O)(=O)c1cc(C)ccc1NC(=S)Nc1cccnc1 | > 26 µM (inactive) |
| O=C(/C(=C/c1cccc(Cl)c1)c1nc2ccccc2[nH]1)c1ccccc1 | > 26 µM (inactive) |
| COc1ccc(CC(=O)Nc2cccc(-c3nnc(-c4cccc(C)c4)o3)c2)cc1OC | > 26 µM (inactive) |
| CC(C)CN(C(=O)COC(=O)C12CC3CC(CC(C3)C1)C2)c1c(N)n(Cc2ccccc2)c(=O)[nH]c1=O | > 26 µM (inactive) |

| Compound | AC50 |
| --- | --- |
| Oc1ccc(Br)cc1CNc1cccc2cccnc12 | > 26 µM (inactive) |
| Cc1cc(C)n(-c2nc(NCCCO)c3c4c(sc3n2)CCCC4)n1 | > 26 µM (inactive) |
| COc1ccc(-c2nn(-c3ccccc3)cc2C(=O)OCC(=O)c2ccc(C)c([N+](=O)[O-])c2)cc1 | > 26 µM (inactive) |
| CC(C)(C)OC(=O)NCc1ccc(NC(=O)c2nc[nH]c2C(=O)NCCCCNC(=O)c2[nH]cnc2C(=O)Nc2ccc(CNC(=O)OC(C)(C)C)cc2)cc1 | > 26 µM (inactive) |
| COc1ccc(N(C)S(=O)(=O)c2cccc(C(=O)Nc3nc(C)c(C(C)=O)s3)c2)cc1 | > 26 µM (inactive) |
| CN(C)c1cc[n+](Cc2c(Cl)cccc2Cl)cc1 | > 26 µM (inactive) |
| COc1ccc(Cl)c(Cn2c(NCc3ccco3)nc3c2c(=O)n(C)c(=O)n3C)c1 | > 26 µM (inactive) |
| CC1=CC(C)(C)N(C(=O)CSc2nnc(-c3ccc(C)cc3)o2)c2ccc(C)cc21 | > 12 µM (inactive) |
| FC(F)(F)c1cccc(-c2nc3nc(Cl)c(Cl)nc3[nH]2)c1 | > 26 µM (inactive) |
| C[n+]1c2n(c3ccccc31)N=C(c1cc(C(C)(C)C)c(O)c(C(C)(C)C)c1)CS2 | > 26 µM (inactive) |
| C=CCc1cccc(/C=N/NC(=O)c2ccc3nc[nH]c3c2)c1O | > 26 µM (inactive) |
| CCCCOc1ncnc2c1[nH]c1ccc(F)cc12 | > 26 µM (inactive) |
| COc1ccc(OCc2n(CC(=O)OC3CC(C)CCC3C(C)C)c3ccccc3[n+]2C)cc1 (configuration not stated) | > 26 µM (inactive) |
| CCn1c(SCC(=O)Nc2cc(C)on2)nc2sc3c(c2c1=O)CCCC3 | > 12 µM (inactive) |
| CCCCCCCCCn1ccc(=N)cc1 | > 26 µM (inactive) |
| CC(=O)OC1COC(OC2C(O)C(C)OC(OC3C(OC4CCC5(C)C(CCC6(C)C5CC=C5C7CC(C)(C)CCC7(C(=O)O)CCC56C)C4(C)CO)OCC(O)C3O)C2O)C(O)C1OC(C)=O (configuration not stated) | > 26 µM (inactive) |
| CCOC(=O)c1c(C)[nH]c(C)c1C(=O)CSc1nc2ccccc2c(=O)n1-c1ccc(CC)cc1 | > 26 µM (inactive) |
| CCCCCCCCCCn1c2c(c(=N)c3c1CCC3)CCC2 | > 26 µM (inactive) |
| CC(=O)NN1C(=O)c2ccc3c4c(ccc(c24)C1=O)C(=O)N(NC(C)=O)C3=O | > 26 µM (inactive) |
| CCN(CC)c1ccc(N=Cc2ccccc2[N+](=O)[O-])cc1 | > 26 µM (inactive) |
| CC(=O)NC(c1ccc(C(C)C)cc1)c1ccc2cccnc2c1O (configuration not stated) | > 26 µM (inactive) |
| Cc1ccc(Nc2c3c(nc4ccccc24)CCC3)cc1 | > 26 µM (inactive) |
| Clc1cccc(N=C2NN=C(c3ccc4c(c3)OCCO4)CS2)c1 | > 26 µM (inactive) |

| Compound | AC50 |
| --- | --- |
| O=S(=O)(C/C(=C/CO)S(=O)(=O)c1ccccc1)c1ccccc1 | 4.21 µM |
| Nc1nonc1-n1nnc(C(=O)N/N=C/c2cc(Cl)ccc2O)c1CN1CCCCCC1 | > 26 µM (inactive) |
| C#CC(=O)N(c1cccc(OC)c1)C(C(=O)NC1CCCC1)c1cccs1 (configuration not stated) | > 26 µM (inactive) |
| CCOc1ccc(-n2c(-c3ccc(OC)cc3)c[n+]3c2CCCCC3)cc1 | > 26 µM (inactive) |
| Cc1cc2nc(-c3ccc(NC(=O)c4cccnc4)cc3)oc2cc1C | > 26 µM (inactive) |
| CCC1=NN(C(=O)c2ccccc2O)C(O)(c2ccccc2)C1 (configuration not stated) | > 26 µM (inactive) |
| CCOC(=O)C(=CNc1ccc(C(O)(C(=O)OCC)C(F)(F)F)cc1C)C(=O)OCC (configuration not stated) | > 26 µM (inactive) |
| Cc1[nH]c2ccccc2c1CN1CCN(c2ccccn2)CC1 | > 26 µM (inactive) |
| Oc1ccc2ccccc2c1N=Nc1ccccn1 | > 26 µM (inactive) |
| CN1/C(=C\C(=S)NC(=O)c2ccc([N+](=O)[O-])cc2)C(C)(C)c2ccccc21 | > 26 µM (inactive) |
| CCCSc1nsc(NC(=O)Nc2ccc(F)cc2F)n1 | > 26 µM (inactive) |
| NNc1nc(-c2ccccc2)cc(-c2ccccc2O)n1 | > 26 µM (inactive) |
| O=[N+]([O-])c1cc(Cl)cc(/C=N\Nc2ccccn2)c1O | > 26 µM (inactive) |
| Cc1ccc(-c2cc3cccc[n+]3cc2-c2ccc(C)cc2)cc1 | > 26 µM (inactive) |
| N=c1ccn(Cc2ccc(Cl)cc2Cl)cc1 | > 26 µM (inactive) |
| O=C(NNc1ccnc2cc(Cl)ccc12)C1CCCCC1 | > 26 µM (inactive) |
| CC(C)Oc1ccc(S(=O)(=O)N2CCCCC2)cc1NC(=O)CN1CCCC1c1cccs1 (configuration not stated) | > 26 µM (inactive) |
| Cc1c(C(=O)N(Cc2ccccc2)C(C)C)oc2ccc(S(=O)(=O)N3CCOCC3)cc12 | > 26 µM (inactive) |
| CCCCCCn1ccc(=N)cc1 | > 26 µM (inactive) |
| CCC(C)(C)c1ccc(OCCCC[n+]2cccc(C)c2C)c(C(C)(C)CC)c1 | > 26 µM (inactive) |
| C[C@H]1CCC/C=C/C2C[C@H](O)CC2[C@H](O)/C=C/C(=O)O1 (some centres not stated) | > 26 µM (inactive) |
| O=C(Nc1nc2ccccc2[nH]1)c1ccccc1F | > 26 µM (inactive) |
| CCN(CC)CCn1c2ccccc2c2cnc(N)c(C#N)c21 | 5.57 µM |

| Compound | AC50 |
| --- | --- |
| O=C1C=C(N2CCOCC2)c2ccccc2C1=O | > 26 µM (inactive) |
| CC(C)(C)C1CCC2(CC1)C(C#N)=C(SCC(=O)NC1CCCCC1)NC(=O)C2C#N (configuration not stated) | > 26 µM (inactive) |
| COc1ccc(C(CCN2CCCCC2)c2c(OC)cc(OC)c3c(-c4ccccc4)cc(=O)oc23)cc1 (configuration not stated) | 16.6 µM |
| CN(C)c1nc(N/N=C/c2ccccc2O)nc(Nc2ccc(F)cc2)n1 | > 26 µM (inactive) |
| COc1ccc(-c2c([C@H]3[C@H]4C=CC[C@@H](C)[C@@H]4C(=O)N3Cc3ccccc3)ccc3ccccc23)cc1 | > 26 µM (inactive) |
| CCCCCCSc1cc(-c2nc3ccc(C)cn3c2NCc2ccccc2)ccc1OC | > 26 µM (inactive) |
| COc1ccc(-n2c(-c3ccc(Cl)cc3)c[n+]3c2CCc2ccccc2-3)cc1 | > 26 µM (inactive) |
| CCCCNC(=O)c1ccc(Cn2c(=S)[nH]c3c([nH]c4ccc(OC)cc43)c2=O)cc1 | > 26 µM (inactive) |
| COc1cccc(C(=O)Oc2c(CN3CCOCC3)cc(Cl)c3cccnc23)c1 | > 26 µM (inactive) |
| Cc1ccc(NC(=O)c2ccccc2NS(=O)(=O)c2ccc(Cl)s2)cc1 | > 26 µM (inactive) |
| Cc1cc(N/N=C/c2ccc(O)cc2O)nc(-c2ccccc2O)n1 | > 26 µM (inactive) |
| COc1ccc(-c2sc3ccccc3c2-c2ccc(OCCN(C)C)cc2)cc1 | > 12 µM (inactive) |
| O=C(NCc1cccnc1)C(=O)Nc1nc(C23CC4CC(CC(C4)C2)C3)cs1 | > 26 µM (inactive) |
| Cc1cc(C)n(-c2nc3ccccc3c(=O)n2OCC#N)n1 | > 26 µM (inactive) |
| C(#Cc1ccccc1)C[N+]1(CC#Cc2cccc3ccccc23)CCCC1 | > 26 µM (inactive) |
| C/C(=N\NC(=O)c1cc(-c2cccnc2)nc2ccccc12)c1ccc(O)cc1O | > 26 µM (inactive) |
| CSc1nc(-c2ccccc2)nc(C(Cl)Cl)n1 | 2.7 µM |
| C(C#CCCCCCCCCC[n+]1ccccc1)#CCCCCCCCCC[n+]1ccccc1 | > 26 µM (inactive) |
| C=C1C(=O)C=C2CN(C(=O)c3ccccc3)[C@@](Cc3ccc(F)cc3)(C(=O)OC)[C@@H]12 | > 26 µM (inactive) |
| O=C(Nc1ccc(OC(F)(F)F)cc1)Nc1cccc([N+](=O)[O-])c1 | > 26 µM (inactive) |
| O=[N+]([O-])c1ccc(/C=N/n2cnc3ccccc32)s1 | > 26 µM (inactive) |
| CCCCCCCCCCOC(=O)Cn1c(COc2ccccc2OC)[n+](C)c2ccccc21 | > 26 µM (inactive) |
| CCN1CCN(CCCNC(=O)c2ccc3c(c2)NC(=O)/C(=C\c2cccc(C)c2)S3)CC1 | 10.3 µM |
